Laboratory results: PubChem BioAssay (NCI)
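48-hour exposure; five concentrations; linearly interpolated endpoints. GI50 marks 50% less growth. TGI: concentration producing complete growth inhibition.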

Assays:
Test in all cases: growth of human tumour cells (NCI), 48 h; in the data active = GI50 below about 0.43 µM; inactive = the rest
RPMI-8226 leukemia = system: RPMI-8226 leukemia
786-0 renal = system: 786-0 renal
OVCAR-4 ovarian = system: OVCAR-4 ovarian
SR leukemia = system: SR leukemia
HT29 colon = system: HT29 colon
EKVX NSCLC = system: EKVX NSCLC
NCI-H522 lung = system: NCI-H522 lung
MOLT-4 leukemia = system: MOLT-4 leukemia
SNB-75 CNS = system: SNB-75 CNS
MALME-3M melanoma = system: MALME-3M melanoma
SK-MEL-28 melanoma = system: SK-MEL-28 melanoma
UACC-62 melanoma = system: UACC-62 melanoma
DU-145 prostate = system: DU-145 prostate
A498 renal = system: A498 renal
COLO 205 colon = system: COLO 205 colon
HCC-2998 colon = system: HCC-2998 colon
T-47D breast = system: T-47D breast
IGROV1 ovarian = system: IGROV1 ovarian
U251 CNS = system: U251 CNS
RXF 393 renal = system: RXF 393 renal
SF-268 CNS = system: SF-268 CNS
HCT-15 colon = system: HCT-15 colon
SW-620 colon = system: SW-620 colon
K-562 leukemia = system: K-562 leukemia
SK-MEL-2 melanoma = system: SK-MEL-2 melanoma
BT-549 breast = system: BT-549 breast
ACHN renal = system: ACHN renal
OVCAR-8 ovarian = system: OVCAR-8 ovarian
UO-31 renal = system: UO-31 renal
SK-OV-3 ovarian = system: SK-OV-3 ovarian
SK-MEL-5 melanoma = system: SK-MEL-5 melanoma
PC-3 prostate = system: PC-3 prostate
HCT-116 colon = system: HCT-116 colon
TK-10 renal = system: TK-10 renal
CAKI-1 renal = system: CAKI-1 renal
NCI/ADR-RES ovarian = system: NCI/ADR-RES ovarian
HS 578T breast = system: HS 578T breast
OVCAR-3 ovarian = system: OVCAR-3 ovarian
NCI-H23 lung = system: NCI-H23 lung
MDA-MB-435 = system: MDA-MB-435
HOP-62 NSCLC = system: HOP-62 NSCLC
SN12C renal = system: SN12C renal
CCRF-CEM leukemia = system: CCRF-CEM leukemia
OVCAR-5 ovarian = system: OVCAR-5 ovarian
M14 melanoma = system: M14 melanoma
SF-539 CNS = system: SF-539 CNS
NCI-H460 lung = system: NCI-H460 lung
SF-295 CNS = system: SF-295 CNS
LOX IMVI melanoma = system: LOX IMVI melanoma
HOP-92 NSCLC = system: HOP-92 NSCLC
SNB-19 CNS = system: SNB-19 CNS
MDA-MB-231 breast = system: MDA-MB-231 breast
A549 NSCLC = system: A549 NSCLC
NCI-H226 lung = system: NCI-H226 lung
KM12 colon = system: KM12 colon
UACC-257 melanoma = system: UACC-257 melanoma
HL-60(TB) leukemia = system: HL-60(TB) leukemia
MCF7 breast = system: MCF7 breast

C=C1C(=O)O[C@H]2[C@H]1CC/C(COC(=O)NCc1c[nH]c3ccc(Br)cc13)=C\CC[C@@]1(C)O[C@@H]21
2.59 µM: TGI (RXF 393 renal)
2.97 µM: TGI (IGROV1 ovarian)
3.29 µM: TGI (SF-295 CNS)
4.04 µM: TGI (NCI-H460 lung)
2.99 µM: TGI (T-47D breast) | TGI (SK-MEL-5 melanoma)
2.94 µM: TGI (CAKI-1 renal)
1.98 µM: TGI (HCT-116 colon)
3.05 µM: TGI (EKVX NSCLC)
3.17 µM: TGI (HOP-92 NSCLC)
3.48 µM: TGI (OVCAR-8 ovarian)
2.3 µM: TGI (SW-620 colon)
2.9 µM: TGI (UACC-257 melanoma)
inactive: GI50 (RPMI-8226 leukemia) 0.752 µM | GI50 (786-0 renal) 0.841 µM | GI50 (OVCAR-4 ovarian) 1.45 µM | GI50 (HT29 colon) 0.794 µM | GI50 (EKVX NSCLC) 1.58 µM | GI50 (NCI-H522 lung) 0.589 µM | GI50 (MOLT-4 leukemia) 1.7 µM | GI50 (SNB-75 CNS) 1.26 µM | GI50 (MALME-3M melanoma) 1.84 µM | GI50 (SK-MEL-28 melanoma) 1.72 µM | GI50 (UACC-62 melanoma) 1.31 µM | GI50 (DU-145 prostate) 1.11 µM | GI50 (A498 renal) 1.67 µM | GI50 (COLO 205 colon) 0.884 µM | GI50 (HCC-2998 colon) 1.79 µM | GI50 (T-47D breast) 1.24 µM | GI50 (IGROV1 ovarian) 1.45 µM | GI50 (U251 CNS) 1.63 µM | GI50 (RXF 393 renal) 1.25 µM | GI50 (SF-268 CNS) 1.61 µM | GI50 (HCT-15 colon) 0.461 µM | GI50 (SW-620 colon) 0.611 µM | GI50 (SK-MEL-2 melanoma) 1.35 µM | GI50 (BT-549 breast) 1.29 µM | GI50 (ACHN renal) 1.28 µM | GI50 (OVCAR-8 ovarian) 1.35 µM | GI50 (UO-31 renal) 1.38 µM | GI50 (SK-OV-3 ovarian) 5.87 µM | GI50 (SK-MEL-5 melanoma) 1.63 µM | GI50 (PC-3 prostate) 1.51 µM | GI50 (HCT-116 colon) 0.619 µM | GI50 (TK-10 renal) 1.55 µM | GI50 (CAKI-1 renal) 1.51 µM | GI50 (NCI/ADR-RES ovarian) 3.04 µM | GI50 (HS 578T breast) 2.17 µM | GI50 (OVCAR-3 ovarian) 1.01 µM | GI50 (NCI-H23 lung) 1.66 µM | GI50 (MDA-MB-435) 1.12 µM | GI50 (HOP-62 NSCLC) 1.52 µM | GI50 (SN12C renal) 1.36 µM | GI50 (OVCAR-5 ovarian) 1.76 µM | GI50 (M14 melanoma) 1.35 µM | GI50 (SF-539 CNS) 1.66 µM | GI50 (NCI-H460 lung) 1.88 µM | GI50 (SF-295 CNS) 1.6 µM | GI50 (LOX IMVI melanoma) 0.701 µM | GI50 (HOP-92 NSCLC) 1.58 µM | GI50 (SNB-19 CNS) 2.75 µM | GI50 (MDA-MB-231 breast) 1.49 µM | GI50 (A549 NSCLC) 1.75 µM | GI50 (NCI-H226 lung) 1.55 µM | GI50 (KM12 colon) 2.23 µM | GI50 (UACC-257 melanoma) 1.44 µM
10.1 µM: TGI (SR leukemia)
3.65 µM: TGI (A549 NSCLC)
1.53 µM: TGI (K-562 leukemia)
3.25 µM: TGI (A498 renal)
11.3 µM: TGI (SNB-19 CNS)
3.41 µM: TGI (SF-268 CNS)
2.93 µM: TGI (TK-10 renal)
12.4 µM: TGI (NCI/ADR-RES ovarian)
3.3 µM: TGI (HCC-2998 colon)
3.35 µM: TGI (OVCAR-4 ovarian) | TGI (NCI-H23 lung) | TGI (HOP-62 NSCLC)
3.13 µM: TGI (SF-539 CNS)
2.68 µM: TGI (UO-31 renal)
2.55 µM: TGI (MDA-MB-435)
5.07 µM: TGI (KM12 colon)
3.57 µM: TGI (RPMI-8226 leukemia)
3.78 µM: TGI (OVCAR-5 ovarian)
5.51 µM: TGI (MOLT-4 leukemia)
3.37 µM: TGI (SK-MEL-28 melanoma)
2.29 µM: TGI (OVCAR-3 ovarian)
2.05 µM: TGI (NCI-H522 lung) | TGI (LOX IMVI melanoma)
2.53 µM: TGI (SNB-75 CNS)
2.81 µM: TGI (SK-MEL-2 melanoma)
2.64 µM: TGI (UACC-62 melanoma)
7.09 µM: TGI (HS 578T breast)
2.58 µM: TGI (DU-145 prostate) | TGI (ACHN renal)
1.58 µM: TGI (CCRF-CEM leukemia)
2.26 µM: TGI (HT29 colon)
1.87 µM: TGI (HCT-15 colon)
3.12 µM: TGI (PC-3 prostate) | TGI (SN12C renal)
active: GI50 (SR leukemia) 0.296 µM | GI50 (K-562 leukemia) 0.292 µM | GI50 (CCRF-CEM leukemia) 0.315 µM
2.92 µM: TGI (BT-549 breast)
3.53 µM: TGI (MALME-3M melanoma)
18.5 µM: TGI (SK-OV-3 ovarian)
3.02 µM: TGI (U251 CNS)
2.32 µM: TGI (COLO 205 colon)
3.07 µM: TGI (M14 melanoma) | TGI (MDA-MB-231 breast) | TGI (NCI-H226 lung)
2.36 µM: TGI (786-0 renal)

c1ccc(-c2cn3nc(N4CCOCC4)sc3n2)cc1
> 100 µM: TGI (RPMI-8226 leukemia) | TGI (786-0 renal) | TGI (OVCAR-4 ovarian) | TGI (HT29 colon) | TGI (EKVX NSCLC) | TGI (NCI-H522 lung) | TGI (MOLT-4 leukemia) | TGI (SNB-75 CNS) | TGI (MALME-3M melanoma) | TGI (SK-MEL-28 melanoma) | TGI (UACC-62 melanoma) | TGI (DU-145 prostate) | TGI (COLO 205 colon) | TGI (HCC-2998 colon) | TGI (T-47D breast) | TGI (IGROV1 ovarian) | TGI (U251 CNS) | TGI (RXF 393 renal) | TGI (SF-268 CNS) | TGI (HCT-15 colon) | TGI (SW-620 colon) | TGI (K-562 leukemia) | TGI (SK-MEL-2 melanoma) | TGI (BT-549 breast) | TGI (ACHN renal) | TGI (HL-60(TB) leukemia) | TGI (OVCAR-8 ovarian) | TGI (UO-31 renal) | TGI (SK-OV-3 ovarian) | TGI (SK-MEL-5 melanoma) | TGI (PC-3 prostate) | TGI (HCT-116 colon) | TGI (TK-10 renal) | TGI (MCF7 breast) | TGI (CAKI-1 renal) | TGI (NCI/ADR-RES ovarian) | TGI (HS 578T breast) | TGI (OVCAR-3 ovarian) | TGI (NCI-H23 lung) | TGI (MDA-MB-435) | TGI (HOP-62 NSCLC) | TGI (SN12C renal) | TGI (CCRF-CEM leukemia) | TGI (OVCAR-5 ovarian) | TGI (M14 melanoma) | TGI (NCI-H460 lung) | TGI (SF-295 CNS) | TGI (SNB-19 CNS) | TGI (MDA-MB-231 breast) | TGI (A549 NSCLC) | TGI (NCI-H226 lung) | TGI (KM12 colon) | TGI (UACC-257 melanoma)
